From PubChem BioAssay (NCI)
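48-hour exposure; five concentrations; linearly interpolated endpoints. The concentration for 50% growth inhibition is given as GI50. TGI: concentration producing complete growth inhibition.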

What was measured:
Assay in all cases: DTP human tumour cell line panel, 48 h
[1] = system: SNB-75 CNS
[2] = system: U251 CNS
[3] = system: OVCAR-3 ovarian
[4] = system: HT29 colon
[5] = system: NCI/ADR-RES ovarian
[6] = system: HCT-15 colon
[7] = system: CAKI-1 renal
[8] = system: NCI-H522 lung
[9] = system: RXF 393 renal
[10] = system: MCF7 breast
[11] = system: SK-MEL-28 melanoma
[12] = system: SR leukemia
[13] = system: HOP-92 NSCLC
[14] = system: COLO 205 colon
[15] = system: LOX IMVI melanoma
[16] = system: HS 578T breast
[17] = system: SK-MEL-5 melanoma
[18] = system: TK-10 renal
[19] = system: SK-OV-3 ovarian
[20] = system: 786-0 renal
[21] = system: IGROV1 ovarian
[22] = system: DU-145 prostate
[23] = system: SF-539 CNS
[24] = system: SF-295 CNS
[25] = system: SK-MEL-2 melanoma
[26] = system: HOP-62 NSCLC
[27] = system: MALME-3M melanoma
[28] = system: NCI-H226 lung
[29] = system: SF-268 CNS
[30] = system: PC-3 prostate
[31] = system: SNB-19 CNS
[32] = system: HL-60(TB) leukemia
[33] = system: CCRF-CEM leukemia
[34] = system: A498 renal
[35] = system: MOLT-4 leukemia
[36] = system: UO-31 renal
[37] = system: HCT-116 colon
[38] = system: A549 NSCLC
[39] = system: K-562 leukemia
[40] = system: EKVX NSCLC
[41] = system: KM12 colon
[42] = system: RPMI-8226 leukemia
[43] = system: SN12C renal
[44] = system: MDA-MB-231 breast
[45] = system: NCI-H460 lung
[46] = system: M14 melanoma
[47] = system: SW-620 colon
[48] = system: OVCAR-8 ovarian
[49] = system: NCI-H23 lung
[50] = system: BT-549 breast

N#C/C(=C\c1ccc([N+](=O)[O-])s1)c1nc2cc(Br)ccc2s1
GI50 [1]: 355 nM | GI50 [2]: 298 nM | TGI [2]: 986 nM | GI50 [3]: 248 nM | TGI [3]: 733 nM | GI50 [4]: 1920 nM | TGI [4]: > 100000 nM | GI50 [5]: 276 nM | TGI [5]: 827 nM | GI50 [6]: 70.7 nM | TGI [6]: 264 nM | GI50 [7]: 218 nM | TGI [7]: 1010 nM | GI50 [8]: 206 nM | TGI [8]: 539 nM | GI50 [9]: 325 nM | TGI [9]: 2060 nM | GI50 [10]: 305 nM | GI50 [11]: 346 nM | TGI [11]: > 100000 nM | GI50 [12]: 85.6 nM | TGI [12]: 1770 nM | GI50 [13]: 175 nM | TGI [13]: 451 nM | GI50 [14]: 269 nM | TGI [14]: 844 nM | GI50 [15]: 171 nM | TGI [15]: 395 nM | GI50 [16]: 804 nM | TGI [16]: 9280 nM | GI50 [17]: 167 nM | TGI [17]: 311 nM | GI50 [18]: 918 nM | TGI [18]: > 100000 nM | GI50 [19]: 1640 nM | TGI [19]: > 100000 nM | GI50 [20]: 2680 nM | TGI [20]: > 100000 nM | GI50 [21]: 254 nM | TGI [21]: 1140 nM | GI50 [22]: 719 nM | TGI [22]: > 100000 nM | GI50 [23]: 236 nM | TGI [23]: 638 nM | TGI [24]: > 100000 nM | GI50 [25]: 236 nM | TGI [25]: 672 nM | GI50 [26]: 314 nM | TGI [26]: 1680 nM | GI50 [27]: 134 nM | TGI [27]: 291 nM | GI50 [28]: 152 nM | TGI [28]: 335 nM | GI50 [29]: 468 nM | TGI [29]: > 100000 nM | GI50 [30]: 435 nM | TGI [30]: 2540 nM | GI50 [31]: 369 nM | TGI [31]: > 100000 nM | GI50 [32]: 3820 nM | TGI [32]: > 100000 nM | GI50 [33]: 161 nM | TGI [33]: > 100000 nM | GI50 [34]: 8050 nM | TGI [34]: > 100000 nM | GI50 [35]: 335 nM | TGI [35]: > 35500 nM | GI50 [36]: 142 nM | TGI [36]: 461 nM | GI50 [37]: 71.3 nM | TGI [37]: 388 nM | GI50 [38]: 509 nM | TGI [38]: > 100000 nM | GI50 [39]: 56.1 nM | TGI [39]: > 40600 nM | GI50 [40]: 246 nM | TGI [40]: 1100 nM | GI50 [41]: 399 nM | TGI [41]: 2470 nM | GI50 [42]: 246 nM | TGI [42]: 856 nM | GI50 [43]: 201 nM | TGI [43]: 576 nM | GI50 [44]: 179 nM | TGI [44]: 430 nM | GI50 [45]: 286 nM | TGI [45]: 845 nM | GI50 [46]: 142 nM | TGI [46]: 323 nM | GI50 [47]: 244 nM | TGI [47]: 1060 nM | GI50 [48]: 246 nM | TGI [48]: 805 nM | GI50 [49]: 279 nM | TGI [49]: 1350 nM | GI50 [50]: 165 nM | TGI [50]: 815 nM
